Measurements taken from US11970497B2, “Tricyclic AKR1C3 dependent KARS inhibitors” (Novartis AG, priority 2019, dated 2024).

Legend:
[1] = system: H460 (NRF2 pathway mutant cell line with high AKR1C3 expression); assay: In vitro cell proliferation assay (CellTiter-Glo), H460; format: cell-based; conditions: Homo sapiens, NCI-H460, 72 h; H460 cells, 3 days, CellTiter-Glo, top concentration 10 μM; read-out: H460 Qualified absolute AC50
Procedure, shortened: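 Luminescent CellTiter-Glo readout after 3-day compound exposure at 37 °C; 8-point 1:5 series, top 10 μM final. Seeding: 800 cells/well for H460, 2000 cells/well for Hara, RPMI-1640 plus 10% FBS. AC50 and percentage activity derived after normalizing to DMSO (1%) and MG132 (30 μM) controls.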

[2] = system: Hara (NRF2 pathway wild type cell line with low AKR1C3 expression); assay: In vitro cell proliferation assay (CellTiter-Glo), Hara; format: cell-based; conditions: 72 h; Hara cells, 3 days, CellTiter-Glo, top concentration 10 μM; read-out: HARA Qualified absolute AC50
Excerpt: Cellular Proliferation Assay to Assess Compounds Activity in H460 (NRF2 Pathway Mutant Cell Line with High AKR1C3 Expression) and Hara (NRF2 Pathway Wild Type Cell Line with Low AKR1C3 Expression).
The cell lines A549 and H460 are NRF2 pathway mutant and specifically contain genetic alterations in KEAP1 (A549: G333C, H460: D236H) (Singh A. et al., 2006 PLoS Medicine 3(10) e420). In these cell lines the NRF2 pathway is constitutively active and these cells express high levels of NRF2 protein and NRF2 pathway target gene AKR1C3. […] They have low AKR1C3 expression.
In Vitro Cell Proliferation Assay
Day 1, for H460 800 cells/well or 40 μL of 2×10^4 cells/mL and for Hara 2000 cells/well or 40 μL of 5×10^4 cells/mL medium (RPMI-1640 supplemented with 10% fetal bovine serum and 1% penicillin/streptomycin) were seeded into 384-well tissue culture plates. Day 2, compounds were serially diluted 1:5 to generate 8 point dose response curves and added to cells for a final top concentration of 10 μM. DMSO (1%) control and MG132 (30 μM) controls are added in columns 23 and 24 respectively on each plate for positive and negative control. After incubation for 3 days at 37° C./5% CO2, 30 μl of CellTiter-Glo reagent (Promega) was added and the plates were incubated for 10 min on plate shaker. The amount of luminescence was determined using a Perkin Elmer Envision plate reader. CellTiter-Glo luminescence values of cells treated with DMSO and MG132 controls were used to normalize the data and calculate percentage activity and AC50s of compounds using the Helios Software suite.

| Compound | AC50 [1] | AC50 [2] |
| --- | --- | --- |
| O=C1CC2(CCN(C(=O)NCc3cccc4c3OCO4)CC2)Nc2c(F)cc(F)cc21 [Example 53, N-(benzo[d][1,3]dioxol-4-ylmethyl)-6′,8′-difluoro-4′-oxo-3′,4′-dihydro-1′H-spiro[piperidine-4,2′-quinoline]-1-carboxamide] | 141 nM | 2020 nM |
| O=C1CC2(CCN(C(=O)NCc3ccc(O)cc3)CC2)Nc2c(F)cc(F)cc21 [Example 54, 6′,8′-difluoro-N-(4-hydroxybenzyl)-4′-oxo-3′,4′-dihydro-1′H-spiro[piperidine-4,2′-quinoline]-1-carboxamide] | 3 nM | 9850 nM |
| CN1c2ccc(F)cc2C(=O)CC12CCN(C(=O)NCc1ccc(F)c(NS(C)(=O)=O)c1)CC2 [Example 55, 6′-fluoro-N-(4-fluoro-3-(methylsulfonamido)benzyl)-1′-methyl-4′-oxo-3′,4′-dihydro-1′H-spiro[piperidine-4,2′-quinoline]-1-carboxamide] | 150 nM | 5170 nM |
| Nc1ccc(CNC(=O)N2CCC3(CC2)CC(=O)c2cc(F)ccc2N3)cc1F [Example 56, N-(4-amino-3-fluorobenzyl)-6′-fluoro-4′-oxo-3′,4′-dihydro-1′H-spiro[piperidine-4,2′-quinoline]-1-carboxamide] | 166 nM | > 10000 nM |
| Nc1ccc(CNC(=O)N2CCC3(CC2)CC(=O)c2cc(F)ccc2N3)c(F)c1F [Example 57, N-(4-amino-2,3-difluorobenzyl)-6′-fluoro-4′-oxo-3′,4′-dihydro-1′H-spiro[piperidine-4,2′-quinoline]-1-carboxamide] | 170 nM | > 10000 nM |
| COC(=O)c1cc(CNC(=O)N2CCC3(CC2)CC(=O)c2cc(F)ccc2N3)ccc1F [Example 61, methyl 2-fluoro-5-((6′-fluoro-4′-oxo-3′,4′-dihydro-1′H-spiro[piperidine-4,2′-quinoline]-1-carboxamido)methyl)benzoate] | 205 nM | 3040 nM |
| CN1c2ccc(F)cc2C(=O)CC12CCN(C(=O)NCc1ccc(F)c(CC(N)=O)c1)CC2 [Example 62, N-(3-(2-amino-2-oxoethyl)-4-fluorobenzyl)-6′-fluoro-1′-methyl-4′-oxo-3′,4′-dihydro-1′H-spiro[piperidine-4,2′-quinoline]-1-carboxamide] | 212 nM | > 10000 nM |
| O=C1CC2(CCN(C(=O)NCc3ncccc3O)CC2)Nc2c(F)cc(F)cc21 [Example 63, 6′,8′-difluoro-N-((3-hydroxypyridin-2-yl)methyl)-4′-oxo-3′,4′-dihydro-1′H-spiro[piperidine-4,2′-quinoline]-1-carboxamide] | 222 nM | > 10000 nM |
| CNC(=O)c1cc(CNC(=O)N2CCC3(CC2)CC(=O)c2cc(F)ccc2N3)ccc1F [Example 64, 6′-fluoro-N-(4-fluoro-3-(methylcarbamoyl)benzyl)-4′-oxo-3′,4′-dihydro-1′H-spiro[piperidine-4,2′-quinoline]-1-carboxamide] | 222 nM | > 10000 nM |
| Nc1c(F)cc(CNC(=O)N2CCC3(CC2)CC(=O)c2cc(F)ccc2N3)cc1F [Example 65, N-(4-amino-3,5-difluorobenzyl)-6′-fluoro-4′-oxo-3′,4′-dihydro-1′H-spiro[piperidine-4,2′-quinoline]-1-carboxamide] | 222 nM | > 10000 nM |
| CN(C)c1cccc(CNC(=O)N2CCC3(CC2)CC(=O)c2cc(F)cc(F)c2N3)n1 [Example 66, N-((6-(dimethylamino)pyridin-2-yl)methyl)-6′,8′-difluoro-4′-oxo-3′,4′-dihydro-1′H-spiro[piperidine-4,2′-quinoline]-1-carboxamide] | 223 nM | > 10000 nM |
| O=C1CC2(CCN(C(=O)NCc3ccc(F)cc3C(F)(F)F)CC2)Nc2ccc(F)cc21 [Example 67, 6′-fluoro-N-(4-fluoro-2-(trifluoromethyl)benzyl)-4′-oxo-3′,4′-dihydro-1′H-spiro[piperidine-4,2′-quinoline]-1-carboxamide] | 225 nM | 2300 nM |
| O=C1CC2(CCN(C(=O)NCc3ccc(F)cc3Cl)CC2)Nc2ccc(F)cc21 [Example 68, N-(2-chloro-4-fluorobenzyl)-6′-fluoro-4′-oxo-3′,4′-dihydro-1′H-spiro[piperidine-4,2′-quinoline]-1-carboxamide] | 226 nM | 9140 nM |
| NC(=O)c1cccc(CNC(=O)N2CCC3(CC2)CC(=O)c2cc(F)ccc2N3)c1 [Example 69, N-(3-carbamoylbenzyl)-6′-fluoro-4′-oxo-3′,4′-dihydro-1′H-spiro[piperidine-4,2′-quinoline]-1-carboxamide] | 233 nM | > 10000 nM |
| O=C1CC2(CCN(C(=O)NCc3ccc(F)c(OCCO)c3)CC2)Nc2ccc(F)cc21 [Example 70, 6′-fluoro-N-(4-fluoro-3-(2-hydroxyethoxy)benzyl)-4′-oxo-3′,4′-dihydro-1′H-spiro[piperidine-4,2′-quinoline]-1-carboxamide] | 238 nM | 3550 nM |
| O=C1CC2(CCN(C(=O)NCc3cc(OCCO)c(F)cc3F)CC2)Nc2ccc(F)cc21 [Example 71, N-(2,4-difluoro-5-(2-hydroxyethoxy)benzyl)-6′-fluoro-4′-oxo-3′,4′-dihydro-1′H-spiro[piperidine-4,2′-quinoline]-1-carboxamide] | 265 nM | > 10000 nM |
| Nc1cc(CNC(=O)N2CCC3(CC2)CC(=O)c2cc(F)cc(F)c2N3)ccc1F [Example 73, N-(3-amino-4-fluorobenzyl)-6′,8′-difluoro-4′-oxo-3′,4′-dihydro-1′H-spiro[piperidine-4,2′-quinoline]-1-carboxamide] | 295 nM | 3480 nM |
| NS(=O)(=O)c1cccc(CNC(=O)N2CCC3(CC2)CC(=O)c2cc(F)ccc2N3)c1 [Example 74, 6′-fluoro-4′-oxo-N-(3-sulfamoylbenzyl)-3′,4′-dihydro-1′H-spiro[piperidine-4,2′-quinoline]-1-carboxamide] | 305 nM | > 10000 nM |
| CCN1c2ccc(F)cc2C(=O)CC12CCN(C(=O)NCc1ccc(F)c(NCCO)c1F)CC2 [Example 75, N-(2,4-difluoro-3-((2-hydroxyethyl)amino)benzyl)-1′-ethyl-6′-fluoro-4′-oxo-3′,4′-dihydro-1′H-spiro[piperidine-4,2′-quinoline]-1-carboxamide] | 306 nM | > 10000 nM |
| CN1c2ccc(F)cc2C(=O)CC12CCN(C(=O)NCc1ccc(N)cc1)CC2 [Example 76, N-(4-aminobenzyl)-6′-fluoro-1′-methyl-4′-oxo-3′,4′-dihydro-1′H-spiro[piperidine-4,2′-quinoline]-1-carboxamide] | 309 nM | > 10000 nM |
| O=C1CC2(CCN(C(=O)NCc3cc(NCCO)c(F)cc3F)CC2)Nc2ccc(F)cc21 [Example 77, N-(2,4-difluoro-5-((2-hydroxyethyl)amino)benzyl)-6′-fluoro-4′-oxo-3′,4′-dihydro-1′H-spiro[piperidine-4,2′-quinoline]-1-carboxamide] | 311 nM | > 10000 nM |
| O=C1CC2(CCN(C(=O)NCc3ccc(F)c(NCCO)c3)CC2)Nc2ccc(F)cc21 [Example 78, 6′-fluoro-N-(4-fluoro-3-((2-hydroxyethyl)amino)benzyl)-4′-oxo-3′,4′-dihydro-1′H-spiro[piperidine-4,2′-quinoline]-1-carboxamide] | 321 nM | > 10000 nM |
| Nc1cc(F)c(CNC(=O)N2CCC3(CC2)CC(=O)c2cc(F)ccc2N3)c(F)c1 [Example 80, N-(4-amino-2,6-difluorobenzyl)-6′-fluoro-4′-oxo-3′,4′-dihydro-1′H-spiro[piperidine-4,2′-quinoline]-1-carboxamide] | 347 nM | > 10000 nM |
| CN1c2ccc(F)cc2C(=O)CC12CCN(C(=O)NCc1ccc(F)c(C(=O)NCCO)c1)CC2 [Example 82, 6′-fluoro-N-(4-fluoro-3-((2-hydroxyethyl)carbamoyl)benzyl)-1′-methyl-4′-oxo-3′,4′-dihydro-1′H-spiro[piperidine-4,2′-quinoline]-1-carboxamide] | 356 nM | > 10000 nM |
| O=C1CC2(CCN(C(=O)NCc3ccc(F)c(CO)c3)CC2)Nc2ccc(F)cc21 [Example 83, 6′-fluoro-N-(4-fluoro-3-(hydroxymethyl)benzyl)-4′-oxo-3′,4′-dihydro-1′H-spiro[piperidine-4,2′-quinoline]-1-carboxamide] | 361 nM | > 10000 nM |
| Nc1c(F)ccc(CNC(=O)N2CCC3(CC2)CC(=O)c2cc(F)ccc2N3)c1F [Example 84, N-(3-amino-2,4-difluorobenzyl)-6′-fluoro-4′-oxo-3′,4′-dihydro-1′H-spiro[piperidine-4,2′-quinoline]-1-carboxamide] | 367 nM | > 10000 nM |
